Results on eight molecules are retold here after US20110034434A1, “PRODRUGS OF FUSED HETEROCYCLIC INHIBITORS OF D-AMINO ACID OXIDASE” (SEPRACOR INC., priority 2009, published 2011).

Data set [1] is described as follows: Hydrolysis rate of test compounds in pH 7.4 and 2.0 aqueous solution. As to conditions: HPLC; for Hydrolysis rate at pH 7.4: 0.05 M sodium phosphate buffer pH 7.4, over 6 hours; for Hydrolysis rate at pH 2.0: water adjusted with phosphoric acid to pH 2.0, over 2 hours. The data set is classed as physicochemical. The method, then:
10 mM DMSO solutions of test compounds were diluted with a 0.05 M sodium phosphate buffer (pH 7.4) or water adjusted with phosphoric acid to pH 2.0, with a final concentration of 0.013 mg/mL. Samples were analyzed over either 2 or 6 hours, by HPLC.
The amount of test compound and the corresponding acid were determined. The rate of conversion of the test compound was calculated based on formation of the corresponding acid and loss of parent.
The rate of hydrolysis of test compounds to 4H-furo[3,2-b]pyrrole-5-carboxylic acid was evaluated in pH 7.4 aqueous solution over 6 hours, and in pH 2.0 aqueous solution over 2 hours, according to General Procedure 14.

A further data set deals with D-serine. In words: PK-PD evaluation in rats: D-serine levels in cerebellum after oral dosing. The data set is classed as in vivo. As to conditions: rat cerebellum, 6 hours after PO dosing, dose normalized to 10 mg/kg of the acid; mean ± spread (n). Here is the method:
Rats (Harlan male Sprague) (N=3) were dosed orally with an amount of test compound, suspended in 45% (w/v) hydroxy-β-cyclodextrin vehicle, dose normalized to 10 mg/kg of the corresponding carboxylic acid. Additional male cannulated rats (N=3) were dosed orally with the parent carboxylic acid, suspended in 45% (w/v) hydroxy-β-cyclodextrin vehicle, at 10 mg/kg. Animals were sacrificed at pre-determined time points (e.g., 0.5, 2 and/or 6 hours post administration) with an N=3 at each time point. At sacrifice, trunk blood was collected into tubes containing potassium EDTA, which were then centrifuged to permit isolation of plasma. The cerebellum was dissected from each animal. Plasma and cerebellum samples were stored at −80° C. until samples were analyzed using a SCIEX API2000 or SCIEX API5000 LC/MS/MS. Samples were analyzed for the amount of corresponding parent acid, D-serine, and/or the amount of test compound.
Conversion of test compounds to 4H-furo[3,2-b]pyrrole-5-carboxylic acid (“acid”; 77) in rats was evaluated according to General Procedure 12. 4H-furo[3,2-b]pyrrole-5-carboxylic acid and D-serine levels in plasma and cerebellum were measured. Animals were sacrificed at 6 hours post administration. In Table 6, “[D-serine] cerebellum” refers to D-serine levels, in nmol/g, in the rat cerebellum. In Table 6, “[acid] cerebellum” refers to the concentration, in μM, of the 4H-furo[3,2-b]pyrrole-5-carboxylic acid in the cerebellum. In Table 6, “[acid] plasma” refers to the concentration, in μM, of the 4H-furo[3,2-b]pyrrole-5-carboxylic acid in the plasma. The row labeled “acid”, denotes the data obtained from dosing 4H-furo[3,2-b]pyrrole-5-carboxylic acid. The row labeled “vehicle” denotes the data obtained from dosing vehicle, and the remaining row in the table denote the data obtained from dosing the test compounds.

For the molecule `Cc1oc(=O)oc1COC(=O)c1cc2occc2[nH]1` [compound 72, (5-methyl-2-oxo-1,3-dioxol-4-yl)methyl 4H-furo[3,2-b]pyrrole-5-carboxylate], in data set [1], the “Hydrolysis rate at pH 7.4” value is recorded as 0.20%/hr and the “Hydrolysis rate at pH 2.0” value was “No hydrolysis”. In addition, the “[D-serine] cerebellum” value in the data set on D-serine is given as 21 ± 3.5(9) nmol/g.

For the molecule `O=C(OCC(=O)N1CCOCC1)c1cc2occc2[nH]1` [compound 21, 2-morpholino-2-oxoethyl 4H-furo[3,2-b]pyrrole-5-carboxylate], in data set [1], the “Hydrolysis rate at pH 7.4” value is on record as “No hydrolysis” and the “Hydrolysis rate at pH 2.0” value is on record as “No hydrolysis”. Moreover, in the data set with D-serine, the “[D-serine] cerebellum” value was 19 ± 1.0(6) nmol/g.

On to `CC(OC(=O)OC1CCCCC1)OC(=O)c1cc2occc2[nH]1` (stereo not shown) [compound 39, 1-(cyclohexyloxycarbonyloxy)ethyl 4H-furo[3,2-b]pyrrole-5-carboxylate], for which the “Hydrolysis rate at pH 7.4” value in data set [1] worked out at 0.21%/hr. Further, in the data set on D-serine, the “[D-serine] cerebellum” value is 17 ± 2.6(3) nmol/g.

Consider `O=C(OCCN1CCOCC1)c1cc2occc2[nH]1` [compound 30, 2-morpholinoethyl 4H-furo[3,2-b]pyrrole-5-carboxylate], for which, in data set [1], the “Hydrolysis rate at pH 7.4” value is “No hydrolysis” and the “Hydrolysis rate at pH 2.0” value is “No hydrolysis”. Also, in the data set with D-serine, the “[D-serine] cerebellum” value is recorded as 14 ± 1.2(3) nmol/g.

In the case of `O=C(OCC1CCCO1)c1cc2occc2[nH]1` (stereo not shown) [compound 10, (tetrahydrofuran-2-yl)methyl 4H-furo[3,2-b]pyrrole-5-carboxylate], in data set [1], the “Hydrolysis rate at pH 7.4” value is “No hydrolysis” and the “Hydrolysis rate at pH 2.0” value was “No hydrolysis”. Also, the “[D-serine] cerebellum” value in the data set with D-serine was 19 ± 2.0(6) nmol/g.

In the case of `O=C(OCC(=O)N1CCC1)c1cc2occc2[nH]1` [compound 19, 2-(azetidin-1-yl)-2-oxoethyl 4H-furo[3,2-b]pyrrole-5-carboxylate], in data set [1], the “Hydrolysis rate at pH 7.4” value is listed as “No hydrolysis” and the “Hydrolysis rate at pH 2.0” value was “No hydrolysis”. The “[D-serine] cerebellum” value in the data set with D-serine is 17 ± 0.7(3) nmol/g.

Consider `CC(OC(=O)c1cc2occc2[nH]1)OC(=O)C(C)C` (stereo not shown) [compound 35, 1-(isobutyryloxy)ethyl 4H-furo[3,2-b]pyrrole-5-carboxylate], for which the “Hydrolysis rate at pH 7.4” value in data set [1] is reported as 3.46%/hr. For the same molecule, the “[D-serine] cerebellum” value in the data set on D-serine is reported as 16 ± 0.9(3) nmol/g.

For the molecule `CN(C)C(=O)COC(=O)c1cc2occc2[nH]1` [compound 20, 2-(dimethylamino)-2-oxoethyl 4H-furo[3,2-b]pyrrole-5-carboxylate], in data set [1], the “Hydrolysis rate at pH 7.4” value is recorded as “No hydrolysis” and the “Hydrolysis rate at pH 2.0” value is on record as “No hydrolysis”. Moreover, in the data set with D-serine, the “[D-serine] cerebellum” value is on record as 19 ± 0.8(6) nmol/g.
